{
  "source": "patent US9403830B2",
  "about": "“Inhibitors of leukotriene production” (Boehringer Ingelheim International GmbH, priority 2012, dated 2016)",
  "key": {"human LTA4 hydrolase": {"biological_target": "T1, human LTA4 hydrolase (Homo sapiens, UniProt P09960)", "T1 sequence (P09960 1-611)": "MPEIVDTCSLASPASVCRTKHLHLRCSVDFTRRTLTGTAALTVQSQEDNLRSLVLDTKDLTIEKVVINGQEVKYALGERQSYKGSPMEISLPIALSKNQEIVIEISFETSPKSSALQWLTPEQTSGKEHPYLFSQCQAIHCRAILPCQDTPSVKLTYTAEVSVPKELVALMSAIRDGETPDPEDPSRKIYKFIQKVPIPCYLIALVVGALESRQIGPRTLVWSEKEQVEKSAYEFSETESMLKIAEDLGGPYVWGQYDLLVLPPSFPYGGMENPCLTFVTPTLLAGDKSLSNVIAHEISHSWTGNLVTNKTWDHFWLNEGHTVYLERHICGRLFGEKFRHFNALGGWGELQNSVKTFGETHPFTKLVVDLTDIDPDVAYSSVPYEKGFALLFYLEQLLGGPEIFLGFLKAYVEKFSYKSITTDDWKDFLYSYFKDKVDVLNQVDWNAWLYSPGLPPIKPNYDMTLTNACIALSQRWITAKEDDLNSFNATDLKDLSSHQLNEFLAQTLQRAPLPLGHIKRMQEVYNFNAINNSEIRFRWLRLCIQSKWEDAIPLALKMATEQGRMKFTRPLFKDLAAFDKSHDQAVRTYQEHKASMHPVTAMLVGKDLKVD", "assay": "LTA4H Enzyme assay (peptidase, Arg-AMC cleavage)", "type": "biochemical", "conditions": "LTA4H enzyme 1 nM, Arg-AMC substrate 50 μM, room temperature 1 h, fluorescence 380/460 nm", "summary_of_the_method": "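Human LTA4H (1 nM final) incubated with compound and Arg-AMC (50 μM final) in 50 mM Tris-HCl pH 7.5, 100 mM KCl, 0.5% BSA, 1 h at room temperature. Product read as AMC fluorescence (ex 380/em 460 nm); IC50 reported.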"}, "[1]": {"test_system": "LTB4 synthesis in human whole blood", "assay": "human whole blood (HWB) assay, inhibition of LTB4 production", "type": "cell-based", "conditions": "heparinized human whole blood, calcimycin 20 μM stimulation, plasma LTB4", "summary_of_the_method": "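Plasma LTB4, quantified by HTRF immunoassay, is the read-out after calcimycin challenge (20 μM final, 30 min, 37 °C) of heparinized whole blood that had been pretreated with compound for 15 min at 37 °C; values given as IC50.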"}},
  "note": "pIC50: −log10 of the molar value.",
  "data": [
    {"smiles": "c1cc(-c2ccc(Oc3ccc4c(cnn4CCN4CCCC4)c3)cc2)[nH]n1", "note": "[Example 75, 5-[4-(2H-pyrazol-3-yl)-phenoxy]-1-(2-pyrrolidin-1-yl-ethyl)-1H-indazole]", "values": [
      {"measurement": "pIC50", "setting": "human LTA4 hydrolase", "value": 9.62},
      {"measurement": "pIC50", "setting": "[1]", "value": 7.08}
    ]},
    {"smiles": "CN(Cc1nc2cc(Oc3ccc(-c4ccn[nH]4)cc3)ccc2[nH]1)C[C@@H]1CCCO1", "note": "[Example 76, Methyl-{5-[4-(2H-pyrazol-3-yl)-phenoxy]-1H-benzoimidazol-2-ylmethyl}-[(S)-1-(tetrahydro-furan-2-yl)methyl]-amine]", "values": [
      {"measurement": "pIC50", "setting": "human LTA4 hydrolase", "value": 9.70},
      {"measurement": "pIC50", "setting": "[1]", "value": 7.06}
    ]},
    {"smiles": "CN(Cc1nc2cc(Oc3ccc(-c4ccn[nH]4)cc3)ccc2[nH]1)[C@H]1CCOC1", "note": "[Example 77, Methyl-{5-[4-(2H-pyrazol-3-yl)-phenoxy]-1H-benzoimidazol-2-ylmethyl}-(S)-tetrahydro-furan-3-yl-amine]", "values": [
      {"measurement": "pIC50", "setting": "human LTA4 hydrolase", "value": 10.00},
      {"measurement": "pIC50", "setting": "[1]", "value": 7.06}
    ]},
    {"smiles": "CN(Cc1nc2cc(Oc3ccc(-c4ccn[nH]4)cc3)ccc2[nH]1)[C@@H]1CCOC1", "note": "[Example 78, Methyl-{5-[4-(2H-pyrazol-3-yl)-phenoxy]-1H-benzoimidazol-2-ylmethyl}-(R)-tetrahydro-furan-3-yl-amine]", "values": [
      {"measurement": "pIC50", "setting": "human LTA4 hydrolase", "value": 10.05},
      {"measurement": "pIC50", "setting": "[1]", "value": 7.02}
    ]},
    {"smiles": "c1cc(-c2ccc(Oc3ccc4c(cnn4CCCN4CCCC4)c3)cc2)[nH]n1", "note": "[Example 79, 5-[4-(2H-Pyrazol-3-yl)-phenoxy]-1-(3-pyrrolidin-1-yl-propyl)-1H-indazole]", "values": [
      {"measurement": "pIC50", "setting": "human LTA4 hydrolase", "value": 9.52},
      {"measurement": "pIC50", "setting": "[1]", "value": 7.01}
    ]},
    {"smiles": "CC[C@@H](C)N(C)Cc1nc2cc(Oc3ccc(-c4ccn[nH]4)cc3)ccc2[nH]1", "note": "[Example 80, ((R)-sec-Butyl)-methyl-{5-[4-(2H-pyrazol-3-yl)-phenoxy]-1H-benzoimidazol-2-ylmethyl}-amine]", "values": [
      {"measurement": "pIC50", "setting": "human LTA4 hydrolase", "value": 10.05},
      {"measurement": "pIC50", "setting": "[1]", "value": 7.01}
    ]},
    {"smiles": "CN(Cc1nc2cc(Oc3ccc(-c4ccn[nH]4)cc3)ccc2[nH]1)C[C@H]1CCCO1", "note": "[Example 81]", "values": [
      {"measurement": "pIC50", "setting": "human LTA4 hydrolase", "value": 9.57},
      {"measurement": "pIC50", "setting": "[1]", "value": 7.00}
    ]},
    {"smiles": "COC[C@H](C)N(C)Cc1nc2cc(Oc3ccc(-c4ccn[nH]4)cc3)ccc2[nH]1", "note": "[Example 82, ((S)-2-Methoxy-1-methyl-ethyl)-methyl-{5-[4-(2H-pyrazol-3-yl)-phenoxy]-1H-benzoimidazol-2-ylmethyl}-amine]", "values": [
      {"measurement": "pIC50", "setting": "human LTA4 hydrolase", "value": 10.11},
      {"measurement": "pIC50", "setting": "[1]", "value": 6.96}
    ]},
    {"smiles": "c1cc(-c2ccc(Oc3ccc4c(cnn4CCN4CCCC4)c3)nc2)[nH]n1", "note": "[Example 83, 5-[5-(2H-Pyrazol-3-yl)-pyridin-2-yloxy]-1-(2-pyrrolidin-1-yl-ethyl)-1H-indazole]", "values": [
      {"measurement": "pIC50", "setting": "human LTA4 hydrolase", "value": 9.06},
      {"measurement": "pIC50", "setting": "[1]", "value": 6.92}
    ]},
    {"smiles": "c1cc(-c2ccc(Oc3ccc4nn(CCCN5CCOCC5)cc4c3)cc2)[nH]n1", "note": "[Example 84, 2-(3-Morpholin-4-yl-propyl)-5-[4-(2H-pyrazol-3-yl)-phenoxy]-2H-indazole]", "values": [
      {"measurement": "pIC50", "setting": "human LTA4 hydrolase", "value": 9.44},
      {"measurement": "pIC50", "setting": "[1]", "value": 6.92}
    ]},
    {"smiles": "CN(Cc1nc2cc(Oc3ccc(-c4ccn[nH]4)cc3)ccc2[nH]1)CC1CCCO1", "note": "(stereo not shown) [Example 85, Methyl-{5-[4-(2H-pyrazol-3-yl)-phenoxy]-1H-benzoimidazol-2-ylmethyl}-(tetrahydro-furan-2-ylmethyl)-amine]", "values": [
      {"measurement": "pIC50", "setting": "human LTA4 hydrolase", "value": 9.62},
      {"measurement": "pIC50", "setting": "[1]", "value": 6.92}
    ]},
    {"smiles": "CCN(Cc1nc2cc(Oc3ccc(-c4ccn[nH]4)cc3)ccc2[nH]1)[C@@H](C)COC", "note": "[Example 86, Ethyl-((S)-2-methoxy-1-methyl-ethyl)-{5-[4-(2H-pyrazol-3-yl)-phenoxy]-1H-benzoimidazol-2-ylmethyl}-amine]", "values": [
      {"measurement": "pIC50", "setting": "human LTA4 hydrolase", "value": 10.25},
      {"measurement": "pIC50", "setting": "[1]", "value": 6.92}
    ]},
    {"smiles": "CN(Cc1nc2cc(Oc3ccc(-c4ccn[nH]4)cc3)ccc2[nH]1)CC1COCCO1", "note": "(stereo not shown) [Example 87, [1,4]Dioxan-2-ylmethyl-methyl-{5-[4-(2H-pyrazol-3-yl)-phenoxy]-1H-benzoimidazol-2-ylmethyl}-amine]", "values": [
      {"measurement": "pIC50", "setting": "human LTA4 hydrolase", "value": 9.44},
      {"measurement": "pIC50", "setting": "[1]", "value": 6.92}
    ]},
    {"smiles": "CN1CCC[C@H]1Cc1nc2cc(Oc3ccc(-c4ccn[nH]4)cc3)ccc2[nH]1", "note": "[Example 89, 2-((S)-1-Methyl-pyrrolidin-2-ylmethyl)-5-[4-(2H-pyrazol-3-yl)-phenoxy]-1H-benzoimidazole]", "values": [
      {"measurement": "pIC50", "setting": "human LTA4 hydrolase", "value": 10.07},
      {"measurement": "pIC50", "setting": "[1]", "value": 6.89}
    ]}
  ]
}
